Measured values reported in the NIST ThermoML archive (doi:10.1021/je049787p).
Numbers after ± are expanded uncertainties.

Details: 101.3 kPa, Liquid; for electrical conductivity: Alternating current cell with electrodes

C=CCn1cc[n+](C)c1.[Cl-] [1-allyl-3-methylimidazolium chloride]
viscosity (293.15 K): 66 ± 10 mPa·s | electrical conductivity (293.15 K): 0.00382 ± 0.00038 S/m | viscosity (303.15 K): 44.7 ± 5.9 mPa·s | electrical conductivity (303.15 K): 0.0044 ± 0.00044 S/m | viscosity (313.15 K): 25.3 ± 3.5 mPa·s | electrical conductivity (313.15 K): 0.00501 ± 0.0005 S/m | viscosity (323.15 K): 20.6 ± 2.8 mPa·s | electrical conductivity (323.15 K): 0.00562 ± 0.00056 S/m | viscosity (333.15 K): 16.2 ± 2.3 mPa·s | electrical conductivity (333.15 K): 0.00624 ± 0.00062 S/m
